Experimental findings from publication PMC10216551 (2023) are described below.

Assay [1] relates to H10 (DNA, aptamer) GACGACTAGAGGGGGCCCGTTATTCGGTGATGTCTTGTCGTCCCGATGCT
Kind of assay: ITC. To be noted: 500 mM NaCl, 10 mM MgCl2; 50 mM HEPES pH 7.6, 25 °C; 10 μM aptamer, 0.33 mM 5-HMF in syringe.

The subject of assay [2] is H3 (DNA, aptamer) GACGACTAAGCGGCGGTGTGGGCATTTTGGGCTTTTGTCGTCCCGATGCT
Kind of assay: ITC. The conditions noted are these: 500 mM NaCl, 10 mM MgCl2, 50 mM HEPES pH 7.6, 25 °C.

Assay [3] has as its system H1-21 (DNA, aptamer) GTAGCGGCGGTGTGGGCATTTTGGGCTAA
Kind of assay: ITC. To be noted: 500 mM NaCl, 10 mM MgCl2; 50 mM HEPES pH 7.6, 25 °C; one-site fit.

Assay [4] has as its system H1-14 (DNA, aptamer) GACGTAGCGGCGGTGTGGGCATTTTGGGCTAAAGTC
Kind of assay: ITC. To be noted: 500 mM NaCl, 10 mM MgCl2; 50 mM HEPES pH 7.6, 25 °C; one-site fit.

The subject of assay [5] is H2 (DNA, aptamer) GACGACTGTGGGCTGCCAAGGGCGCGTAGGGCGAAAGTCGTCCCGATGCT
The assay is described as follows: ITC. The conditions noted are these: 500 mM NaCl, 10 mM MgCl2, 50 mM HEPES pH 7.6, 25 °C.

Assay [6] deals with H7 (DNA, aptamer) GACGACGTCCCGATGCTGCAATCGTAAACCCGTTATGTCGTCCCGATGCT
The assay is described as follows: ITC. To be noted: 500 mM NaCl, 10 mM MgCl2; 50 mM HEPES pH 7.6, 25 °C; 10 μM aptamer, 0.33 mM 5-HMF in syringe.

Assay [7] relates to H1-12 (DNA, aptamer) CGACGTAGCGGCGGTGTGGGCATTTTGGGCTAAAGTCG
The assay is described as follows: ITC. The conditions noted are these: 500 mM NaCl, 10 mM MgCl2; 50 mM HEPES pH 7.6, 25 °C; one-site fit.

For assay [8], the system named is H1 (DNA, aptamer) GACGACGTAGCGGCGGTGTGGGCATTTTGGGCTAAAGTCGTCCCGATGCT
Kind of assay: ITC. To be noted: 500 mM NaCl, 10 mM MgCl2, 50 mM HEPES pH 7.6, 25 °C.

For assay [9], the system named is FAM-H1-8 (DNA, aptamer) GACGACGTAGCGGCGGTGTGGGCATTTTGGGCTAAAGTCGTC
The assay is described as follows: fluorescence, quencher strand displacement. To be noted: 500 mM NaCl, 10 mM MgCl2, 50 mM HEPES pH 7.6, room temperature.

Assay [10] has as its system H1-8 (DNA, aptamer) GACGACGTAGCGGCGGTGTGGGCATTTTGGGCTAAAGTCGTC
Kind of assay: ITC. To be noted: 500 mM NaCl, 10 mM MgCl2; 50 mM HEPES pH 7.6, 25 °C; one-site fit.

In the case of `O=Cc1ccc(CO)o1`, the binding entry in assay [1] and in assay [6] was “no” each time. The Kd in assay [2] (one-site fit) worked out at 12.40 ± 2.70 µM; in assay [3], 4.7 ± 0.6 µM; in [4] it was 6.50 ± 1.80 µM; in assay [5] (one-site fit), 8.76 ± 2.50 µM; in assay [7], 1.22 ± 0.90 µM; in assay [8] (one-site fit), 2.46 ± 1.90 µM. Further, the Kd in [9] (apparent, BHQ1-cDNA displaced (1:2), 5-HMF 0–2000 μM) was determined as 64 µM; in assay [10] it was 1.79 ± 0.60 µM.

Regarding `O=Cc1ccco1`, the binding result in [2] (FF concentration not stated) is on record as “no”; in assay [5] (FF concentration not stated) it was “no”; in [8] (FF concentration not stated) it was “no”; in [9] (BHQ1-cDNA as displaced strand, up to 100 μM FF), “no”.
